41 compounds from US8580803B2, “Substituted pyrrolo-aminopyrimidine compounds” (ArQule, Inc., priority 2009, dated 2013) can be followed below.

For one data set, the target named is AKT1 (Homo sapiens, UniProt P31749). The data set can be described thus: AKT Kinase Activity Assay (AlphaScreen, crosstide). Particulars: Average of Akt1 biochemical assay. As for the experimental part:
AKT1 activity was assayed using the GSK3-derived biotinylated peptide substrate, crosstide (biotin-GRPRTSSFAEG), and AlphaScreen™ (Amplified Luminescent Proximity Homogeneous Assay) technology. AKT1 activation was achieved by the addition of the activating kinases PDK1 and MAPKAPK2, lipid vesicles, and ATP. The extent of peptide phosphorylation was determined using a phospho-AKT substrate antibody and acceptor beads conjugated to Protein A and donor beads conjugated to streptavidin that bind to the biotin on the peptide. Excitation of the donor beads converted ambient oxygen to excited singlet oxygen which, when in close proximity to acceptor beads, reacted with acceptor beads resulting in signal amplification.
Test inhibitors and controls (Abbott inhibitor, Merck pre-clinical inhibitor, and Merck clinical inhibitor) were prepared in 10% DMSO at 10-fold the desired final concentration, and added to each well of a reaction plate (Corning 96-well half-area solid white nonbinding surface plate) in a volume of 2.5 μL. […] After a 20 minute pre-incubation at room temperature, the kinase reaction was initiated by the addition of 5 μL of an activation mixture diluted in assay buffer containing biotinylated crosstide, PDK1, MAPKAPK2, DOPS/DOPC, PtdIns(3,4,5)P3, and ATP for final concentrations of 60 nM biotinylated crosstide, 0.1 nM PDK1, 0.7 nM MK2, 5.5 μM DOPS, 5.5 μM DOPC, 0.5 μM PtdIns(3,4,5)P3, and 50 μM ATP. The plates were incubated for 30 minutes at room temperature, and then stopped in the dark by the addition of 10 μL stop/detection mixture prepared in assay buffer containing EDTA, AlphaScreen™ Streptavidin Donor and Protein A Acceptor beads, and phospho-AKT substrate antibody for final concentrations of 10 mM EDTA, 500 ng/well of both AlphaScreen™ Streptavidin Donor beads and Protein A Acceptor beads, and phospho-AKT substrate antibody at a final dilution of 1:350. Assay plates were incubated for 90 minutes at room temperature in the dark, and the plates were read on a Perkin Elmer Envision Multilabel plate reader ([…]).
For orientation: In Alpha technology, singlet oxygen from a donor bead excites a nearby acceptor bead.

The next data set addresses T1, ACK1 (110-489) (Homo sapiens, UniProt Q07912).
T1 construct: ACK1 110-489 (12.5 μl) were added to each well
Kind of data set: ACK1 Activity Assay (AlphaScreen, PYK2-derived peptide). It is filed as biochemical. As for the experimental part: The extent of peptide phosphorylation was determined by using acceptor beads conjugated to phosphotyrosine antibody that recognizes the phosphorylated peptide and donor beads conjugated to streptavidin that binds to the biotin on the peptide. Excitation of the donor beads converted ambient oxygen to excited singlet oxygen which when in close proximity to acceptor beads, reacted with acceptor beads where the signal was amplified.
Test inhibitors and controls (N-(2,6-dimethylphenyl)-4-(2-ethoxyphenoxy)-2-[(4-piperazin-1-ylphenyl)amino]pyrimidine-5-carboxamide) were prepared in 10% DMSO at 10× the desired final concentration. […] After a 20-min incubation at room temperature, the kinase reaction was initiated by the addition of 10 μl of PYK2/ATP mixture. […] The plates were incubated for 60 min at room temperature. The reaction was stopped by the addition of 10 μl stop/detection mixture which contains EDTA (final concentration is 10 mM), AlphaScreen™ Streptavidin Donor beads (final concentration is 500 ng/well) and AlphaScreen™ Phospho-tyrosine (P-Tyr-100) Acceptor beads (final concentration is 500 ng/well) were diluted in assay buffer. This reagent addition step was performed in the dark because the AlphaScreen™ beads are light-sensitive. The plate was incubated for 60 min at room temperature in the dark and the plates were read on the Perkin Elmer Envision Multilabel plate reader ([…]).

T1 sequence (Q07912 110-489, species assumed): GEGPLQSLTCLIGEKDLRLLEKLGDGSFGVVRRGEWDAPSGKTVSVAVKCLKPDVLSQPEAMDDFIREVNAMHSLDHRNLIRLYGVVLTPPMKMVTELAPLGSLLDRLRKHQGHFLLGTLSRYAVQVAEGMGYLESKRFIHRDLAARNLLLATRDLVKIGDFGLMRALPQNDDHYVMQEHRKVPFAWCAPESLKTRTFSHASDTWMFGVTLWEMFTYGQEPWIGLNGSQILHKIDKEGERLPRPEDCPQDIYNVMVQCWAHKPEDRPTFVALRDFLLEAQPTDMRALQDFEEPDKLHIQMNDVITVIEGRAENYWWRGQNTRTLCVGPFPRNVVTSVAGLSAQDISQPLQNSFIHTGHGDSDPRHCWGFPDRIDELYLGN
Chain of AKT1 (P31749 whole entry): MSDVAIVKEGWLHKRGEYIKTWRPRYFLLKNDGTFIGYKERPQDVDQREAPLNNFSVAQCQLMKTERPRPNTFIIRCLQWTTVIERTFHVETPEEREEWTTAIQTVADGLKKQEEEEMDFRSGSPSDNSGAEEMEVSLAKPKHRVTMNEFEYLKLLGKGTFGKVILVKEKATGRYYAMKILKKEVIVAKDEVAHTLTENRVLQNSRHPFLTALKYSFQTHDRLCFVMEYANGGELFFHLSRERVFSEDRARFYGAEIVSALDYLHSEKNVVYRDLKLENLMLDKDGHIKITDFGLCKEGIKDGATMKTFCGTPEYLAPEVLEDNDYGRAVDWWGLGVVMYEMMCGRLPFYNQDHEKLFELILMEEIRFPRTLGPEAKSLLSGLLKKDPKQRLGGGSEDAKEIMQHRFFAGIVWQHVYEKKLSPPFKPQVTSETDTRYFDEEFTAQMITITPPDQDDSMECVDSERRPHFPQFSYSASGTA

Broadly, the IC50 is the concentration at which inhibition is half-maximal. High values mean weaker potency in that assay, low ones greater potency in that assay. As to `O=C(CCc1cccnc1)Nc1cccc(Nc2ncnc3[nH]cc(C(=O)c4ccccc4)c23)c1` [N-(3-{[5-(phenylcarbonyl)-7H-pyrrolo[2,3-d]pyrimidin-4-yl]amino}phenyl)-3-pyridin-3-ylpropanamide], the IC50 on AKT1 worked out at 288 nM; against ACK1 (110-489), 1070 nM.
`O=C(Nc1ccccc1)c1cccc(Nc2ncnc3[nH]cc(C(=O)c4ccccc4)c23)c1` [drawing 239, 3-[(5-benzoyl-7H-pyrrolo[2,3-d]pyrimidin-4-yl)amino]-N-phenylbenzamide] showed an IC50 on AKT1 of 1400 nM.
Turning to `CN(C)CC(=O)Nc1cccc(Nc2ncnc3[nH]cc(C(=O)c4ccccc4)c23)c1` [N,N-dimethyl-N-(3-{[5-(phenylcarbonyl)-7H-pyrrolo[2,3-d]pyrimidin-4-yl]amino}phenyl)glycinamide], the IC50 against AKT1 was 1120 nM; against ACK1 (110-489), 672 nM.
Turning to `O=C(NCCCCN1CCCC1)c1cccc(Nc2ncnc3[nH]cc(C(=O)c4ccccc4)c23)c1` [3-[(5-benzoyl-7H-pyrrolo[2,3-d]pyrimidin-4-yl)amino]-N-(4-pyrrolidin-1-ylbutyl)benzamide], the results for the IC50 on AKT1 and against ACK1 (110-489) were 676 nM and 2170 nM, respectively.
Consider `O=C(Nc1cccc(Nc2ncnc3[nH]cc(C(=O)c4ccccc4)c23)c1)c1ccc(Cl)cc1` [4-chloro-N-(3-{[5-(phenylcarbonyl)-7H-pyrrolo[2,3-d]pyrimidin-4-yl]amino}phenyl)benzamide], for which the IC50 is 5130 nM on AKT1 and 15700 nM against ACK1 (110-489).
A word on the melting point: it is the temperature, or range, at which the solid turns liquid. `CC(C)(C)NC(=O)Nc1cccc(Nc2ncnc3[nH]cc(C(=O)c4ccccc4)c23)c1` registered a melting point of 185 to 187 °C.
As to `Nc1ccc(Nc2ncnc3[nH]cc(C(=O)c4ccccc4)c23)cc1` [{4-[(4-aminophenyl)amino]-7H-pyrrolo[2,3-d]pyrimidin-5-yl}(phenyl)methanone], the IC50 at AKT1 was determined as 2570 nM; against ACK1 (110-489) it was 338 nM.
In turn, `O=C(Nc1ccccc1)c1cccc(Nc2ncnc3[nH]cc(C(=O)c4ccccc4)c23)c1` displayed a melting point of more than 300 °C.
As to `O=C(NCCCN1CCCC1)c1cccc(Nc2ncnc3[nH]cc(C(=O)c4ccccc4)c23)c1` [3-[(5-benzoyl-7H-pyrrolo[2,3-d]pyrimidin-4-yl)amino]-N-(3-pyrrolidin-1-ylpropyl)benzamide], the IC50 on AKT1 stood at 899 nM; on ACK1 (110-489) it was 1200 nM.
In turn, `NCc1cccc(Nc2ncnc3[nH]cc(C(=O)c4ccccc4)c23)c1` [drawing 278, (4-{[3-(aminomethyl)phenyl]amino}-7H-pyrrolo[2,3-d]pyrimidin-5-yl)(phenyl) methanone] showed an IC50 against AKT1 of 186 nM.
Turning to `CC(=O)Nc1cccc(Nc2ncnc3[nH]cc(C(=O)c4ccccc4C)c23)c1`, the melting point was more than 300 °C.
Same read-out and setting: under `CC(C)(C)OC(=O)NCc1ccc(Nc2ncnc3[nH]cc(C(=O)c4ccccc4)c23)cc1` stands 256 to 258 °C; under `Cn1cc(C(=O)c2ccccc2)c2c(Nc3cccc(N)c3)ncnc21`, 170 to 173 °C.
With `CN(C)CCCNC(=O)c1cccc(Nc2ncnc3[nH]cc(C(=O)c4ccccc4)c23)c1` [3-[(5-benzoyl-7H-pyrrolo[2,3-d]pyrimidin-4-yl)amino]-N-[3-(dimethylamino)propyl]benzamide], the IC50 on AKT1 turned out to be 674 nM; against ACK1 (110-489), 486 nM.
Compound `O=C(Nc1ccc(Nc2ncnc3[nH]cc(C(=O)c4ccccc4)c23)cc1)c1ccccc1` returned a melting point of more than 300 °C.
For `CN1CCC(NC(=O)c2cccc(Nc3ncnc4[nH]cc(C(=O)c5ccccc5)c34)c2)CC1` [3-[(5-benzoyl-7H-pyrrolo[2,3-d]pyrimidin-4-yl)amino]-N-(1-methylpiperidin-4-yl)benzamide], the IC50 against AKT1 is 1440 nM; against ACK1 (110-489), 592 nM.
Consider `CC(=O)Nc1cccc(Nc2ncnc3c2c(C(=O)c2ccccc2)cn3C)c1` [drawing 273, N-(3-{[7-methyl-5-(phenylcarbonyl)-7H-pyrrolo[2,3-d]pyrimidin-4-yl]amino}phenyl)acetamide], for which 2510 nM corresponded to half-maximal inhibition on AKT1 (IC50).
For `CC(C)(C)OC(=O)Nc1cccc(Nc2ncnc3[nH]cc(C(=O)c4ccccc4)c23)c1`, the melting point fell in the range of 288 to 290 °C.
As to `Nc1cccc(Nc2ncnc3[nH]cc(C(=O)c4ccccc4)c23)c1` [drawing 248, {4-[(3-aminophenyl)amino]-7H-pyrrolo[2,3-d]pyrimidin-5-yl}(phenyl)methanone], the IC50 was 1250 nM against AKT1 and 415 nM against ACK1 (110-489).
Consider `O=C(NCCCN1CCCCC1)c1cccc(Nc2ncnc3[nH]cc(C(=O)c4ccccc4)c23)c1`, for which the melting point was more than 300 °C.
Turning to `O=C(O)c1cccc(Nc2ncnc3[nH]cc(C(=O)c4ccccc4)c23)c1` [3-[(5-benzo-7H-pyrrolo[2,3-d]pyrimidin-4-yl)amino]benzoic acid], the figures for the IC50 against AKT1 and at ACK1 (110-489) were 3000 nM and 2190 nM, respectively.
Take `CC(=O)NCCC(=O)Nc1cccc(Nc2ncnc3[nH]cc(C(=O)c4ccccc4)c23)c1` [3-acetamido-N-(3-((5-benzoyl-7H-pyrrolo[2,3-d]pyrimidin-4-yl)amino)phenyl)propanamide]: the IC50 was found to be 264 nM against AKT1 and 1340 nM against ACK1 (110-489).
For the compound `CNC(=O)c1cccc(Nc2ncnc3[nH]cc(C(=O)c4cccc5ccccc45)c23)c1`, the melting point is more than 300 °C.
`O=C(Nc1cccc(Nc2ncnc3[nH]cc(C(=O)c4ccccc4)c23)c1)c1ccccc1` had a melting point of more than 300 °C.
The compound `CC(=O)NCC(=O)Nc1cc(Cl)cc(Nc2ncnc3[nH]cc(C(=O)c4ccccc4)c23)c1` displayed a melting point of more than 300 °C.
On the same count and under the same terms, in the case of `CCOC(=O)c1cccc(Nc2ncnc3[nH]cc(C(=O)c4ccccc4)c23)c1` it was 256 to 258 °C; in that of `CC(=O)Nc1cccc(Nc2ncnc3[nH]cc(C(=O)c4cccc5ccccc45)c23)c1`, more than 300 °C.
The same measure, in the same setting: under `CC(C)(C)OC(=O)NCc1cccc(Nc2ncnc3[nH]cc(C(=O)c4ccccc4)c23)c1` stands 210 to 212 °C.
Compound `O=C(c1ccccc1)c1c[nH]c2ncnc(Nc3cccc(CO)c3)c12` showed a melting point of 273 to 275 °C.
On the same count and under the same terms, in the case of `NCc1ccc(Nc2ncnc3[nH]cc(C(=O)c4ccccc4)c23)cc1` it was 255 to 257 °C; in that of `O=C(c1ccccc1)c1c[nH]c2ncnc(Nc3cccc(CCO)c3)c12`, more than 300 °C.
In the case of `Nc1cccc(Nc2ncnc3[nH]cc(C(=O)c4ccccc4)c23)n1`, the melting point was more than 300 °C.
On the same count and under the same terms, in the case of `CC(=O)Nc1cccc(Nc2ncnc3[nH]cc(C(=O)c4cccc(F)c4)c23)c1` it was more than 300 °C.
For `Cn1cc(CC(=O)Nc2cccc(Nc3ncnc4[nH]cc(C(=O)c5ccccc5)c34)c2)c2ccccc21` [2-(1-methyl-1H-indol-3-yl)-N-(3-{[5-(phenylcarbonyl)-7H-pyrrolo[2,3-d]pyrimidin-4-yl]amino}phenyl)acetamide], half-maximal inhibition against AKT1 (IC50) required 3090 nM.
For `Nc1cc(Cl)cc(Nc2ncnc3[nH]cc(C(=O)c4ccccc4)c23)c1`, the melting point was more than 300 °C.
The same measure, in the same setting: in the case of `COC(=O)c1cc(NC(=O)CNC(C)=O)cc(Nc2ncnc3[nH]cc(C(=O)c4ccccc4)c23)c1` it was more than 300 °C.
As to `CNC(=O)c1cccc(Nc2ncnc3[nH]cc(C(=O)c4ccccc4)c23)c1` [3-((5-benzoyl-7H-pyrrolo[2,3-d]pyrimidin-4-yl)amino)-N-methylbenzamide], the IC50 on AKT1 worked out at 5120 nM.
The compound `O=C(NCC1CCCCC1)Nc1cccc(Nc2ncnc3[nH]cc(C(=O)c4ccccc4)c23)c1` gave a melting point of 180 to 182 °C.
The same measure, in the same setting: under `O=C(Nc1ccccc1)Nc1cccc(Nc2ncnc3[nH]cc(C(=O)c4ccccc4)c23)c1` stands more than 300 °C; under `CNC(=O)c1cccc(Nc2ncnc3[nH]cc(C(=O)c4cccc(F)c4)c23)c1`, more than 300 °C; under `NCc1cccc(Nc2ncnc3[nH]cc(C(=O)c4ccccc4)c23)c1`, 210 to 212 °C.
